Test [1] has as its system halitosis virulence factors, including cdl, fadA, mgl, and gtfb. Briefly: RT-PCR of virulence factors in multi-species biofilm. Type of test: cell-based. As to conditions: compared with CK group, 2^-△△CT method. Here is the method: 100 µl of saliva was added to a 24-well plate, then 100 µl of the corresponding concentration solution was added respectively to the experimental groups, and finally 800 µl of SHI medium was added. The plate was placed in an anaerobic box and cultured anaerobically at 37°C for 10 hours. Then, the supernatant was discarded, and the multi-species biofilm adhered to the well plate was obtained. After discarding the supernatant from the incubated biofilm, the biofilm adhered to the bottom of the well plate was re-suspended with sterile water by pipetting, transferred to a 1.5 ml centrifuge tube, and stored until gene sequencing was performed.
This example evaluated the effects of lysate, NAD, 2-hydroxy-3-phenylpropionic acid, polypeptide GP(Hyp)GAG, and peptidoglycan on halitosis virulence factors, including cdl, fadA, mgl, and gtfb. The gene cdl can regulate the expression of L-cysteine […], which can catalyze the degradation of protein substrate to produce VSC, thereby causing halitosis. Fusobacterium nucleatum secretes an amyloid-like adhesin (fadA) via the fap2-like autotransporter protein to enhance its virulence. […]
After the sample RNA was reverse-transcribing into cDNA, RT-PCR reaction was performed to detect biofilm-related virulence factors. Experimental results were calculated using the 2^-△△CT method. […]

The subject of another test is VSC concentration. Briefly: in vitro Halimeter determination of VSC concentration in saliva fermentation. Type of test: cell-based, halitosis subjects (saliva). As to conditions: compared with CK group, anaerobic cultivation 10 hours. The method, then:
Fresh saliva was collected from 10 halitosis subjects (Halimeter index >120). Subjects were required not to consume any food or drink for 2 hours before donating saliva. Saliva was directly spat into a saliva collection tube, 5 ml per person, and mixed. The mixture was centrifuged at 4500 rpm for 10 minutes, and the supernatant was collected, aliquoted, and stored at -80°C for subsequent experimental studies.
(§1) Lysate observation group: In a 10 ml sample vial, 100 µl of saliva was added first, followed by the separate addition of ET-22 viable bacteria (1.0×10^9 CFU/ml), ET-22 heat-inactivated bacterial cells (obtained by inactivating viable bacteria at 1.0×10^9 CFU/ml), and lysate (obtained by inactivating and then filtering viable bacteria at 1.0×10^9 CFU/ml), each at 100µl. Then, 1.8 ml of SHI medium was added. After filling with nitrogen, anaerobic cultivation was performed for 10 hours. Then, the obtained culture was placed in a 60°C water bath for 30-min incubation. VSC concentration was measured using the in vitro Halimeter method.
(§2) Group of two nucleotides: In a 10 ml sample vial, 100 µl of saliva was added first, followed by the separate addition of ET-22 viable bacteria (1.0×10^9 CFU/ml), ET-22 heat-inactivated bacterial cells (obtained by inactivating viable bacteria at 1.0×10^9 CFU/ml), NAD, and FAD (500 µg/ml, 100 µg/ml, 10 µg/ml), each at 100µl. Then, 1.8 ml of SHI medium was added. After filling with nitrogen, anaerobic cultivation was performed for 10 hours. Then, the obtained culture was placed in a 60°C water bath for 30-min incubation. VSC concentration was measured using the in vitro Halimeter method.
as §2, with “five organic acids:” for “two nucleotides:”, “heat-inactivating” for “inactivating”, “CFU/ml),” for “CFU/ml), NAD,”, “five organic acid components” for “FAD”
as §2, with “Observation group” for “Group”, “four polypeptides:” for “two nucleotides:”, “heat-inactivating” for “inactivating”, “CFU/ml),” for “CFU/ml), NAD,”, “components of four polypeptides” for “FAD”
as §1, with “Peptidoglycan” for “Lysate observation”, “peptidoglycan (peptidoglycan extracted from” for “lysate (obtained by inactivating and then filtering”, “CFU/ml).” for “CFU/ml), each at 100µl.”, “method. […]” for “method.”

The structures appear in SMILES notation.

Consider `O=C(O)C(O)Cc1ccccc1` (stereo not drawn) [2-hydroxy-3-phenylpropionic acid], for which the “expression of virulence factors (cdl, fadA, mgl, gtfb)” value in test [1] was “significantly regulate”. Further, the VSC concentration entry in the test with VSC concentration (high concentration (500 µg/ml)) and in the test with VSC concentration (medium concentration (100 µg/ml)) was “significantly lower than that in the control group” each time.

(Values after patent EP4772186A1, “USE AND COMPOSITION OF POSTBIOTIC OF LACTOBACILLUS PARACASEI ET-22” (Inner Mongolia Yili Industrial Group Co., Ltd., priority 2023, dated 2025).)
